This is an account of results in patent US20040192686A1, “Benzoazine mono-N-oxides and benzoazine 1,4 dioxides and compositions therefrom for the therapeutic use in cancer treatments” (Auckland Uniservices Limited, priority 2003, published 2004).

SMILES strings stand for the structures. Where a name gives a salt, the structure may show the parent alone.

Turning to `CN(C)CCc1nc2ccccc2[n+]([O-])n1`, the melting point lay within 47 to 49 °C.

`Cl.[O-][n+]1nc(CCN2CCOCC2)nc2ccccc21` had a melting point of 213 to 215 °C.

With `CN(C)CCCc1nc2ccccc2[n+]([O-])n1.Cl`, the melting point was in the range of 228 to 230 °C.

`Cl.[O-][n+]1nc(CCCN2CCCCC2)nc2ccccc21` yielded a melting point of 151 to 153 °C.

`CN(C)CCN(C)c1nc2ccccc2[n+]([O-])n1` (as salt: hydrochloride) [Compound 38, N^1,N^1,N^2-Trimethyl-N^2-(1-oxido-1,2,4-benzotriazin-3-yl)-1,2-ethanediamine] returned a melting point of 220 to 223 °C.

As for `COc1ccc2nc(NCCN(C)C)n[n+]([O-])c2c1` (as salt: hydrochloride) [Compound 92, N^1-(7-Methoxy-1-oxido-1,2,4-benzotriazin-3-yl)-N^2,N^2-dimethyl-1,2-ethanediamine], the melting point was 231 to 235 °C.

Regarding `COc1cccc2nc(N)n[n+]([O-])c12` (hydrate or solvate) [Compound 3a, 8-Methoxy-1,2,4-benzotriazin-3-amine 1-oxid], the melting point lay in the range of 235 to 239 °C.

Consider `CSc1cccc2nc(N)n[n+]([O-])c12` (hydrate or solvate) [Compound 3f, 8-(Methylsulfanyl)-1,2,4-benzotriazin-3-amine 1-oxide], for which the melting point was in the range of 271 to 275 °C.

The molecule `Nc1nc2c(Cl)cccc2[n+]([O-])n1` [Compound 3aa, 5-Chloro-1,2,4-benzotriazin-3-amine 1-oxide] showed a melting point of 251 to 254 °C.

Take `Nc1nc2c(F)cccc2[n+]([O-])n1` [Compound 3ab, 5-Fluoro-1,2,4-benzotriazin-3-amine 1-oxide]: the melting point was 252 to 256 °C.

Take `Nc1nc2c([N+](=O)[O-])cccc2[n+]([O-])n1` [Compound 3ac, 5-Nitro-1,2,4-benzotriazin-3-amine-1-oxide]: the melting point was 269 to 272 °C.

The molecule `CSc1cccc2c1nc(N)n[n+]2[O-]` [Compound 3ad, 5-Methylsulfanyl-1,2,4-benzotriazin-3-amine 1-oxide] showed a melting point of 248 to 252 °C.

With `Cc1cccc2nc(N)n[n+]([O-])c12` [Compound 3b, 8-Methyl-1,2,4-benzotriazin-3-amine 1-oxide], the melting point is 265 °C (dec.).

On to `Nc1nc2cccc(F)c2[n+]([O-])n1` [Compound 3c, 8-Fluoro-1,2,4-benzotriazin-3-amine 1-oxide], for which the melting point is 270 to 278 °C (dec.).

In the case of `Nc1nc2cccc(Cl)c2[n+]([O-])n1` [Compound 3d, 8-Chloro-1,2,4-benzotriazin-3-amine 1-oxide], the melting point was 280 to 290 °C (dec.).

With `Nc1nc2cccc(C(F)(F)F)c2[n+]([O-])n1` [Compound 3e, 8-Trifluoromethyl-1,2,4-benzotriazin-3-amine 1-oxid], the melting point is 280 to 286 °C (dec.).

Turning to `CCCCSc1cccc2nc(N)n[n+]([O-])c12` [Compound 3g, 8-(Butylsulfanyl)-1,2,4-benzotriazin-3-amine 1-oxide], the melting point was 233 to 236 °C.

Regarding `Cc1ccc2nc(N)n[n+]([O-])c2c1` [Compound 3j, 7-Methyl-1,2,4-benzotriazin-3-amine 1-oxide], the melting point was 270 °C (dec.).

Take `Nc1nc2ccc(F)cc2[n+]([O-])n1` [Compound 3k, 7-Fluoro-1,2,4-benzotriazin-3-amin 1-oxide]: the melting point was 280 to 290 °C (dec.).

For `Nc1nc2ccc(Cl)cc2[n+]([O-])n1` [Compound 3l, 7-Chloro-1,2,4-benzotriazin-3-amine 1-oxide], the melting point is 309 °C (dec.).

In the case of `Nc1nc2ccc(C(F)(F)F)cc2[n+]([O-])n1` [Compound 3m, 7-Trifluoromethyl-1,2,4-benzotriazin-3-amine 1-oxide], the melting point was 290 °C (dec.).

Take `CSc1ccc2nc(N)n[n+]([O-])c2c1` [Compound 3n, 7-(Methylsulfanyl)-1,2,4-benzotriazin-3-amine 1-oxide]: the melting point lay within 245 to 247 °C.

As for `CCCCSc1ccc2nc(N)n[n+]([O-])c2c1` [Compound 3o, 7-(Butylsulfanyl)-1,2,4-benzotriazin-3-amine 1-oxide], the melting point is 215 to 217 °C.

For the molecule `Nc1nc2ccc([N+](=O)[O-])cc2[n+]([O-])n1` [Compound 3p, 7-Nitro-1,2,4-benzotriazin-3-amine 1-oxide], the melting point lay within 269 to 272 °C.

The molecule `COc1ccc2c(c1)nc(N)n[n+]2[O-]` [Compound 3q, 6-Methoxy-1,2,4-benzotriazin-3-amine 1-oxide] had a melting point of 265 to 270 °C.

On to `Cc1ccc2c(c1)nc(N)n[n+]2[O-]` [Compound 3r, 6-Methyl-1,2,4-benzotriazin-3-amine 1-oxide], for which the melting point was 263 °C (dec.).

Regarding `Nc1nc2cc(-c3ccccc3)ccc2[n+]([O-])n1` [Compound 3s, 6-Phenyl-1,2,4-benzotriazin-3-amine 1-oxide], the melting point was 256 to 258 °C.

`Nc1nc2cc(F)ccc2[n+]([O-])n1` [Compound 3t, 6-Fluoro-1,2,4-benzotriazin-3-amine 1-oxide] yielded a melting point of 276 to 280 °C.

On to `Nc1nc2cc(C(F)(F)F)ccc2[n+]([O-])n1` [Compound 3v, 6-Trifluoromethyl-1,2,4-benzotriazin-3-amine 1-oxide], for which the melting point was 280 to 284 °C (dec.).

Molecule `CSc1ccc2c(c1)nc(N)n[n+]2[O-]` [Compound 3w, 6-(Methylsulfanyl)-1,2,4-benzotriazin-3-amine 1-oxide] gave a melting point of 248 to 250 °C.

Take `CCCCSc1ccc2c(c1)nc(N)n[n+]2[O-]` [Compound 3x, 6-(Butylsulfanyl)-1,2,4-benzotriazin-3-amine 1-oxide]: the melting point lay in the range of 180 to 182 °C.

Regarding `COc1cccc2c1nc(N)n[n+]2[O-]` [Compound 3y, 5-Methoxy-1,2,4-benzotriazin-3-amine 1-oxide], the melting point is 267 °C (dec.).

For the molecule `Cc1cccc2c1nc(N)n[n+]2[O-]` [Compound 3z, 5-Methyl-1,2,4-benzotriazin-3-amine 1-oxide], the melting point was 253 to 255 °C.

With `CN(C)c1ccc2nc(N)n[n+]([O-])c2c1` [Compound 11, N^7,N^7-Dimethyl-1,2,4-benzotriazine-3,7-diamine 1-oxide], the melting point is 231 to 233 °C.

`CCN(CC)c1ccc2c(c1)nc(N)n[n+]2[O-]` [Compound 13, N^6, N^6-Diethyl-1,2,4-benzotriazine-3,6-diamine 1-oxide]: the melting point is 247 to 251 °C.

The molecule `COCCOc1ccc2nc(N)n[n+]([O-])c2c1` [Compound 14, 7-(2-Methoxyethoxy)-1,2,4-benzotriazin-3-amine 1-oxide] displayed a melting point of 201 to 203 °C.

In turn, `Nc1nc2ccc(OCCBr)cc2[n+]([O-])n1` [Compound 15, 7-(2-Bromoethoxy)-1,2,4-benzotriazin-3-amine 1-oxide] came in with a melting point of 228 to 230 °C.

As for `Nc1nc2ccc(OCCN3CCOCC3)cc2[n+]([O-])n1` [Compound 17, 7-[2-(4-Morpholinyl)ethoxy]-1,2,4-benzotriazin-3-amin 1-oxide], the melting point fell in the range of 175 to 181 °C.

In turn, `CCOC(=O)CNc1nc2ccccc2[n+]([O-])n1` [Compound 20, Ethyl [(1-oxido-1,2,4-benzotriazin-3-yl)amino]acetate] displayed a melting point of 136 to 138 °C.

With `O=C(O)CNc1nc2ccccc2[n+]([O-])n1` [Compound 21, [(1-Oxido-1,2,4-benzotriazin-3-yl)amino]acetic acid], the melting point lay within 217 to 219 °C.

For the molecule `COCCNc1nc2ccccc2[n+]([O-])n1` [Compound 23, N-(2-Methoxyethyl)-1,2,4-benzotriazin-3-amine 1-oxide], the melting point lay in the range of 155 to 156 °C.

For the molecule `N#CCCNc1nc2ccccc2[n+]([O-])n1` [Compound 26, 3-[(1-Oxido-1,2,4-benzotriazin-3-yl)amino]propanenitrile], the melting point lay within 191 to 193 °C.

`N#CCCCNc1nc2ccccc2[n+]([O-])n1` [Compound 27, 4-[(1-Oxido-1,2,4-benzotriazin-3-yl)amino]butanenitrile] registered a melting point of 184 to 187 °C.

Consider `[N-]=[N+]=NCCCNc1nc2ccccc2[n+]([O-])n1` [Compound 28, N-(3-Azidopropyl)-1,2,4-benzotriazin-3-amine 1-oxide], for which the melting point lay in the range of 128 to 130 °C.

In turn, `CC(C)(C)OC(=O)NCCCNc1nc2ccccc2[n+]([O-])n1` [Compound 29, tert-Butyl 3-[(1-oxido-1,2,4-benzotriazin-3-yl)amino]propylcarbamate] displayed a melting point of 145 to 147 °C.

Molecule `CCN(CCCNc1nc2ccccc2[n+]([O-])n1)C(=O)OC(C)(C)C` [Compound 32, tert-Butyl 3-[(1-oxido-1,2,4-benzotriazin-3-yl)amino]propyl(ethyl)carbamate] gave a melting point of 64 to 66 °C.

Turning to `[O-][n+]1nc(NCCOCCO)nc2ccccc21` [Compound 33, 3-{[2-(2-Hydroxyethoxy)ethyl]amino}-1,2,4-benzotriazine 1-oxide], the melting point was in the range of 131 to 131.5 °C.

With `[N-]=[N+]=NCCOCCNc1nc2ccccc2[n+]([O-])n1` [Compound 34, 3-{[2-(2-Azidoethoxy)ethyl]amino}-1,2,4-benzotriazine 1-oxide], the melting point fell in the range of 102 to 104 °C.

`CC(C)(C)ONC(=O)CCOCCNc1nc2ccccc2[n+]([O-])n1` [Compound 35, 3-{[2-(2-tert-Butyloxycarbamoylethoxy)ethyl]amino}-1,2,4-benzotriazine 1-oxide] registered a melting point of 134 to 137 °C.

`[O-][n+]1nc(NCCN2CCCC2)nc2ccccc21` [Compound 40, N-[2-(1-Pyrrolidinyl)ethyl]-1,2,4-benzotriazin-3-amin 1-oxid] showed a melting point of 141 to 143 °C.

For `[O-][n+]1nc(NCCN2CCOCC2)nc2ccccc21` [Compound 41, N-[2-(4-Morpholinyl)ethyl]-1,2,4-benzotriazin-3-amine 1-oxide], the melting point fell in the range of 170 to 172 °C.
